Ten compounds from patent US8507473B2, “3H-imidazo[4,5-b]pyridin-5-ol derivatives useful in the treatment of GPR81 receptor disorders” (Arena Pharmaceuticals, Inc., priority 2008, dated 2013) can be followed below.

Each structure is given as a SMILES string.

Assay [1] addresses T1, GPR81 (Homo sapiens, UniProt Q9BXC0).
T1 construct: expressed in transfected cells; host or cells: CHO-K1 (ATCC CCL-61), recombinant, stably transfected
As to the kind of experiment: HTRF assay for direct cAMP measurement. The class given is cell-based. The settings on record: CHO-K1 cells stably transfected with GPR81, forskolin-stimulated cAMP. The source says:
Compounds were screened for agonists of GPR81 (e.g., human GPR81) using an HTRF® assay for direct cAMP measurement (Gabriel et al, ASSAY and Drug Development Technologies, 1:291-303, 2003) and recombinant CHO-K1 cells stably transfected with GPR81. CHO-K1 cells were obtained from ATCC® (Manassas, Va.; Catalog #CCL-61). An agonist of GPR81 was detected in the HTRF® assay for direct cAMP measurement as a compound which decreased cAMP concentration. The HTRF® assay also was used to determine EC50 values for GPR81 agonists.
The HTRF® assay kit was purchased from Cisbio-US, Inc. (Bedford, Mass.; Catalog #62AM4PEC). The HTRF® assay supported by the kit is a competitive immunoassay between endogenous cAMP produced by the CHO-K1 cells and tracer cAMP labeled with the dye d2. The tracer binding is visualized by a monoclonal anti-cAMP antibody labeled with Cryptate. The specific signal (i.e., fluorescence resonance energy transfer, FRET) is inversely proportional to the concentration of unlabeled cAMP in the standard or sample.
The fluorescence ratio of the samples (test compound or compound buffer) was calculated and used to deduce respective cAMP concentrations by reference to the cAMP standard curve.
The HTRF® assay was carried out using a two-step protocol essentially according to the kit manufacturer's instructions, in 20 μL total volume per well in 384-well plate format (ProxiPlates; PerkinElmer, Fremont, Calif.; catalog #6008280). To each of the experimental wells was transferred 1000 recombinant CHO-K1 cells in 5 μL phosphate buffered saline containing calcium chloride and magnesium chloride (“PBS+”; Invitrogen, Carlsbad, Calif.; catalog #14040) supplemented with IBMX (100 μM) (phosphodiesterase inhibitors; Sigma-Aldrich, St. Louis, Mo.; catalog #I-5879), followed by test compound in 5 μL compound buffer (PBS+ supplemented with 10 μM forskolin (Sigma-Aldrich, St. Louis, Mo.; catalog #F-6886)). The plate was then incubated at room temperature for 1 hour. To each well was then added 5 μl cAMP-d2 conjugate in lysis buffer and 5 μL Cryptate conjugate in lysis buffer according to the kit manufacturer's instructions. The plate was then further incubated at room temperature for 1 hour, after which the assay plate was read.
HTRF® readout was accomplished using a PHERAstar (BMG LABTECH Inc., Durham, N.C.) or EnVision™ (PerkinElmer, Fremont Calif.) microplate reader.
A general note: TR-FRET usually uses a lanthanide donor and a delayed reading to cut background.

The target in assay [2] is T1, GPR81. As to the kind of experiment: GPR81 [35S]GTPγS binding assay. Particulars: membranes of CHO-K1 cells stably transfected with GPR81. The class given is biochemical. How it is done: Compounds were screened for agonism of GPR81 (e.g. human GPR81) using a GTPγS binding assay and CHO-K1 cells stably transfected with GPR81.
GPR81 stably transfected CHO-K1 cells were grown in F-12 Kaighn's Modified Cell Culture Medium with 10% FBS, 2 mM L-glutamine, 1 mM sodium pyruvate and 400 μg/ml G418. For 15 cm^2 plates, cells were rinsed with 5 mL cold PBS and aspirated. Cold membrane scrape buffer (20 mM HEPES, 10 mM EDTA, pH 7.4) was added and cells were scraped off the plate and transferred to a 50 mL centrifuge tube. Cells were spun at 20,000 rpm for 17 minutes at 4° C. The supernatant was aspirated and the pellet was re-suspended in cold membrane wash buffer (30 mL, 20 mM HEPES, 0.1 mM EDTA, pH 7.4). Cells were spun at 20,000 rpm for 17 minutes at 4° C. The supernatant was aspirated away from the membrane pellet. The pellet may be frozen at −80° C. for later use or may be used immediately.
The membrane pellet was thawed (if frozen) on ice and homogenized briefly until in suspension using a polytron mixer (POLYTRON PT3100, probe PT-DA 3007/2 at setting of 7000 rpm). The membrane protein concentration was determined using a Bradford assay. The membrane protein was diluted to a protein concentration of 0.20 mg/mL in binding buffer (20 mM HEPES, pH 7.4, 100 mM NaCl, 10 mM MgCl2) for a final assay concentration of 5 μg/well. Compound plates to be screened were thawed (daughter plates with 5 μL compound@2 mM in 100% DMSO). The 2 mM compounds were diluted 1:50 with 245 μL GDP buffer (binding buffer plus GDP, Sigma-Aldrich Catalog #87127, ranging from 0.4 to 40 μM, made fresh before assay) to 40 μM in 2% DMSO. Compounds in GDP buffer (25 were added per well of a Scintistrip plate (Wallac Catalog #1450-501) and then 50 μL of membrane preparation (0.4 mg protein/mL) was added to each well. The plates were then covered with foil and incubated for 5-10 minutes at room temperature. Subsequently, 25 μL of diluted [^35S]GTPγS (Amersham Biosciences Catalog #SJ1320, about 2000 Ci/mmol (made by adding 5 μL [^35S]GTPγS stock into 10 ml binding buffer) was added to the wells. The plates were covered with foil and incubated on a shaker (Lab-Line model #1314, at setting of 4) for 60 minutes at room temperature. The assay was stopped by sealing the plates with plate covers and spinning the plates at 4000 rpm for 15 minutes at 22° C. The supernatant of each well was apirated using an eight-channel manifold and the plate was read in a Wallac Microbeta counter 1450 set up to detect ^35S.

Another assay deals with Male C57/B16 mice. As to the kind of experiment: NEFA assay, circulating free fatty acids in mice. The settings on record: FIG. 7. In kind it is in vivo, mouse. How it is done: (§1) The supplied standard was diluted with DI water to 1, 0.5, 0.25, 0.125, 0.0625, 0.03125. A water blank was also prepared. Serum samples and standards were dispensed (5 μl/well) to wells of a 96-well plate. Reagent A (100 μL) was added to each well and incubated for 10 minutes at 37° C. Reagent B (200 μL) was then added to each well and incubated for another 10 minutes at 37° C. After equilibration for 5 minutes at room temperature (about 25° C.), the abroad sorbance was measured on a plate reader at 550 nm.
Male C57/B16 mice (8-10 weeks old; about 23 g) were food deprived (by removing food pellets from the cage) for 5 hours with ad libitum access to water. Animals were then dosed with vehicle (5% HPBCD) or drug via intraperitoneal (IP) injection at the desired concentration in a volume of 10 mL/kg. After 30 minutes, mice were euthanized via CO2 asphyxiation and about 300 μl of blood were immediately collected by cardiac puncture. The blood was transferred to an Eppendorf tube and capped on ice. The blood was then centrifuged on a table top centrifuge (4000 rpm at 4° C. for 10 minutes). Serum was collected in a new microfuge tube and re-centrifuged (4000 rpm at 4° C. for 10 minutes). Serum samples were dispensed (5 μl/well) to wells of a 96-well plate.

Assay [3] relates to rat epididymal adipocytes. Briefly: Glycerol assay (rat adipocyte lipolysis). Particulars: rat epididymal adipocytes in vitro, FIG. 5. In kind it is cell-based. As for the experimental part: Free glycerol was determined using a free glycerol reagent, Reagent A (Sigma). Adipocyte media (10 μL) was removed and replated in a flat-bottom 96-well plate. Reagent A (100 μL) was then added to each well. After 10-15 minutes, abroad sorbance was read at OD540 on a Spectramax 340PC microplate reader (Molecular Devices). The amount of glycerol released was calculated based on regression analysis of known glycerol concentrations using a glycerol standard (Sigma).
Epididymal fat pads were surgically removed from CO2-anesthetized male Sprague Dawley rats, weighing 300-500 g. The adipose tissue was minced and suspended in Krebroad s-Ringer bicarbonate HEPES buffer (containing […], […] (monobasic), […] MgSO4.7H2O, […] CaCl2, 1 mM NaHCO3, 3 mM HEPES, 200 nM adenosine, and 1% BSA) with 2.5 mg of collagenase (Sigma) per gram of tissue. The suspension was incubated in an orbital shaker at 37° C. for 40 minutes with constant agitation. Cells were then filtered through a 500 μm mesh filter. For each filter used, 10 mL of buffer was added to the cell suspension to aid with the filtration. Cells were spun at 1000 rpm for 1 minute. A glass Pasteur pipette was then used to remove all buffer remaining below the floating adipocyte layer. Approximately 30 mL of new buffer was then added to the adipocytes and they were incubated for 5 minutes at 37° C. […]

Another assay has as its system Male Sprague Dawley rats. Briefly: NEFA assay, circulating free fatty acids in rats. In kind it is in vivo, rat. The settings on record: after injection of 100 mpk, FIG. 6. As for the experimental part:
as §1
Male Sprague Dawley rats (10-12 weeks old) were obtained from Charles River Labroad s pre-cannulated with right jugular catheters for sample collection. Rats were food deprived overnight (by removing food pellets from the cage) for approximately 16 hours with ad libitum access to water. Canulae were flushed with saline to remove heparin and to clear the catheter line 30 minutes prior to the first (basal) sample collection. Basal samples were collected in a staggered dose manner (e.g. vehicle, high dose, low dose, low dose, high dose, and vehicle). Rats were injected per oral (PO), 2 mL/kg with 5% HPBCD (Hydroxypropyl-β-cyclodextrin) or with drug in 5% HPBCD. Blood (500-700 μl) was drawn via catheter at 10, 20, 40, 60, 120, and 240 minutes post dosing, and saline (about 200 μl) was infused into the catheter to ensure patency. […]

T1 sequence (Q9BXC0 whole entry): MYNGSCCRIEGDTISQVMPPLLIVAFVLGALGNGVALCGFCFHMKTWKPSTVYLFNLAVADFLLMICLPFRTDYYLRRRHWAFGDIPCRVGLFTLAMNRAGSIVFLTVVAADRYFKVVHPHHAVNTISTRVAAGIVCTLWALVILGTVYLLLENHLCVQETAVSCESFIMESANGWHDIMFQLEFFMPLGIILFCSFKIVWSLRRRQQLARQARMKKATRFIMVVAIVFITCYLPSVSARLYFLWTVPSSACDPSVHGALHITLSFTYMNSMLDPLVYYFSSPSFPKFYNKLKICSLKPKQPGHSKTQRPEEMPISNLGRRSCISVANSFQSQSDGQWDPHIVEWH

At GPR81 [1], `Oc1ccc2ncn(-c3cccc(Cl)c3F)c2n1` [Compound 50, 3-(3-Chloro-2-fluorophenyl)-3H-imidazo[4,5-b]pyridin-5-ol] returned an EC50 of 2760 nM. This counts as single-digit micromolar.

With `Oc1ccc2ncn(-c3ccc(Cl)cc3C(F)(F)F)c2n1` [Compound 56, 3-(4-Chloro-2-(trifluoromethyl)phenyl)-3H-imidazo[4,5-b]pyridin-5-ol], the concentration for a half-maximal effect (EC50) on GPR81 [2] was 1390 nM.

`Oc1ccc2ncn(C34CC5CC(CC(C5)C3)C4)c2n1` [Compound 114, 3-(Adamant-1-yl)-3H-imidazo[4,5-b]pyridin-5-ol] registered an EC50 on GPR81 [2] of 30.3 nM. This EC50 lies about 46-fold lower than the previous one.

On GPR81 [1], `Nc1nc2ccc(O)nc2n1-c1ccccc1` [Compound 9, 2-Amino-3-phenyl-3H-imidazo[4,5-b]pyridin-5-ol] yielded an EC50 of 1050 nM.

Turning to `Oc1ccc2ncn(C3CCCCCC3)c2n1` [Compound 48, 3-Cycloheptyl-3H-imidazo[4,5-b]pyridin-5-ol], a half-maximal response on GPR81 [1] (EC50) required 350 nM. Against the preceding compound, the EC50 is about 3-fold lower.

Take `Cc1c(F)cccc1-n1c(N)nc2ccc(O)nc21` [Compound 64, 2-Amino-3-(3-Fluoro-2-methylphenyl)-3H-imidazo[4,5-b]pyridin-5-ol]: on GPR81 [1], the EC50 worked out at 2330 nM.

Turning to `Oc1ccc2nc(Cl)n(-c3ccccc3C3CC3)c2n1` [Compound 133, 2-Chloro-3-(2-Cyclopropylphenyl)-3H-imidazo[4,5-b]pyridin-5-ol], the EC50 at GPR81 [2] was 81.5 nM.

The compound `Oc1ccc2nc(Cl)n(C3CCCCC3)c2n1` [Compound 127, 2-Chloro-3-cyclohexyl-3H-imidazo[4,5-b]pyridin-5-ol] registered an EC50 on GPR81 [2] of 75.3 nM.

As for `Oc1ccc2ncn(-c3ccccc3C(F)(F)F)c2n1` [Compound 28, 3-(2-(Trifluoromethyl)phenyl)-3H-imidazo[4,5-b]pyridin-5-ol], the “circulating free fatty acids” value in the assay with Male C57/B16 mice is “significant decrease of circulating free fatty acids”.

Regarding `Oc1ccc2ncn(-c3ccccc3Cl)c2n1` [Compound 25, 3-(2-Chlorophenyl)-3H-imidazo[4,5-b]pyridin-5-ol], in assay [3], the inhibition of lipolysis entry is recorded as “inhibition of lipolysis”. Besides, the “circulating free fatty acids” value with Male Sprague Dawley rats and in the assay with Male C57/B16 mice was “significant decrease of circulating free fatty acids” each time.

A word on the EC50: it is the concentration at which the effect is half-maximal.
